The record followed here is US20260285888A1, “HETEROCYCLIC COMPOUND AND USE THEREOF” (OTSUKA PHARMACEUTICAL CO., LTD., priority 2023, published 2026).

Data set [1] is described as follows: in vitro. It counts as cell-based, human. The conditions noted are these: human, differentiated hl-60 cells, 300 μmol/L, about 24 hours, PMA-differentiated HL-60 cells, LDH; no-treatment 0%, cell lysis buffer 100%; read-out: cytotoxicity (%) Evaluation compound results. An outline of the steps:
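HL-60 cells differentiated ~72 h with 10 nM PMA, then exposed ~24 h to compound at 300 μmol/L final in RPMI with 2% FBS. LDH release in supernatant gave cytotoxicity % scaled between untreated (0%) and lysis-buffer (100%) groups; triplicate.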

Data set [2] is described as follows: Study for confirmation of conversion to brexpiprazole in a buffer (stability of the evaluation compounds). It counts as physicochemical. The conditions noted are these: in buffer, average of duplicate; for Concentration of brexpiprazole formed: 60-minute reaction sample; for Concentration of evaluation compound decreased: decrease in 60-minute vs 0-minute reaction sample. The gist of the method: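 Compounds (final 1 μmol/L, from 100 μmol/L working solutions) incubated in buffer at 37° C. for 0 or 60 min, in duplicate, after 3 min pre-incubation of the reaction solution. Reactions stopped with acetonitrile/isopropanol (4:1) containing internal standards; compound and formed brexpiprazole quantified against 0.01–1 μmol/L calibration samples.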

In the case of `O=c1ccc2ccc(OCCCC[N+]3(COP(=O)([O-])OCCCOc4ccccc4)CCN(c4cccc5sccc45)CC3)cc2[nH]1` [EX 84, 4-(benzo[b]thiophen-4-yl)-1-(4-((2-oxo-1,2-dihydroquinolin-7-yl)oxy)butyl)piperazin-1-ium-1-yl)methyl (3-phenoxypropyl) phosphate], the cytotoxicity at 24 h, 300 µM in data set [1] was 1%. In addition, in data set [2], the “Concentration of brexpiprazole formed” value stood at 0 nM and the “Concentration of evaluation compound decreased” value stood at 10 nM.

Regarding `CC(C)COP(=O)([O-])OC[N+]1(CCCCOc2ccc3ccc(=O)[nH]c3c2)CCN(c2cccc3sccc23)CC1` [EX 90, (4-(benzo[b]thiophen-4-yl)-1-(4-(2-oxo-1,2-dihydroquinolin-7-yl)oxy)butyl)piperazin-1-ium-1-yl)methyl isobutyl phosphate], in data set [1], the cytotoxicity at 24 h, 300 µM is -6%. Also, in data set [2], the “Concentration of brexpiprazole formed” value was 0 nM and the “Concentration of evaluation compound decreased” value is -30 nM.

Turning to `O=c1ccc2ccc(OCCCC[N+]3(COP(=O)([O-])OCC4CC4)CCN(c4cccc5sccc45)CC3)cc2[nH]1` [EX 91, (4-(benzo[b]thiophen-4-yl)-1-(4-((2-oxo-1,2-dihydroquinolin-7-yl)oxy)butyl)piperazin-1-ium-1-yl)methyl (cyclopropylmethyl) phosphate], in data set [1], the cytotoxicity at 24 h, 300 µM turned out to be 17%. In data set [2], the “Concentration of brexpiprazole formed” value was 0 nM and the “Concentration of evaluation compound decreased” value came out at 120 nM.

Turning to `O=c1ccc2ccc(OCCCC[N+]3(COP(=O)([O-])OCCCCCO)CCN(c4cccc5sccc45)CC3)cc2[nH]1` [EX 92], the cytotoxicity at 24 h, 300 µM in data set [1] was -7%. In data set [2], the “Concentration of brexpiprazole formed” value was 0 nM and the “Concentration of evaluation compound decreased” value was found to be 110 nM.

With `O=c1ccc2ccc(OCCCC[N+]3(COP(=O)([O-])OCCOCCO)CCN(c4cccc5sccc45)CC3)cc2[nH]1` [EX 93, (4-(benzo[b]thiophen-4-yl)-1-(4-((2-oxo-1,2-dihydroquinolin-7-yl)oxy)butyl)piperazin-1-ium-1-yl)methyl (2-(2-hydroxyethoxy)ethyl) phosphate], the cytotoxicity at 24 h, 300 µM in data set [1] was -6%. Moreover, in data set [2], the “Concentration of brexpiprazole formed” value was 0 nM and the “Concentration of evaluation compound decreased” value was -10 nM.

As for `CCOCCOP(=O)([O-])OC[N+]1(CCCCOc2ccc3ccc(=O)[nH]c3c2)CCN(c2cccc3sccc23)CC1` [EX 94, (4-(benzo[b]thiophen-4-yl)-1-(4-((2-oxo-1,2-dihydroquinolin-7-yl)oxy)butyl)piperazine-1-ium-1-yl)methyl (2-ethoxyethyl) phosphate], the cytotoxicity at 24 h, 300 µM in data set [1] is -8%. In data set [2], the “Concentration of brexpiprazole formed” value was found to be 0 nM and the “Concentration of evaluation compound decreased” value was -70 nM.

Take `CCCOCCOP(=O)([O-])OC[N+]1(CCCCOc2ccc3ccc(=O)[nH]c3c2)CCN(c2cccc3sccc23)CC1` [EX 95, (4-(benzo[b]thiophen-4-yl)-1-(4-((2-oxo-1.2-dihydroquinolin-7-yl)oxy)butyl)piperazin-1-ium-1-yl)methyl (2-propoxyethyl) phosphate]: the cytotoxicity at 24 h, 300 µM in data set [1] was -4%. Moreover, in data set [2], the “Concentration of brexpiprazole formed” value was found to be 0 nM and the “Concentration of evaluation compound decreased” value is -10 nM.

As for `CCCCOCCOP(=O)([O-])OC[N+]1(CCCCOc2ccc3ccc(=O)[nH]c3c2)CCN(c2cccc3sccc23)CC1` [EX 96, (4-(benzo[b]thiophen-4-yl)-1-(4-((2-oxo-1,2-dihydroquinolin-7-yl)oxy)butyl)piperazin-1-ium-1-yl)methyl (2-butoxyethyl) phosphate], the cytotoxicity at 24 h, 300 µM in data set [1] came to 12%. Moreover, in data set [2], the “Concentration of brexpiprazole formed” value came out at 0 nM and the “Concentration of evaluation compound decreased” value was 30 nM.

For the compound `CCOCCCOP(=O)([O-])OC[N+]1(CCCCOc2ccc3ccc(=O)[nH]c3c2)CCN(c2cccc3sccc23)CC1` [EX 97, (4-(benzo[b]thiophen-4-yl)-1-(4-((2-oxo-1.2-dihydroquinolin-7-yl)oxy)butyl)piperazin-1-ium-1-yl)methyl (3-ethoxypropyl) phosphate], in data set [1], the cytotoxicity at 24 h, 300 µM was -2%. In data set [2], the “Concentration of brexpiprazole formed” value turned out to be 0 nM and the “Concentration of evaluation compound decreased” value was found to be 90 nM.

Consider `CCOCCOCCOP(=O)([O-])OC[N+]1(CCCCOc2ccc3ccc(=O)[nH]c3c2)CCN(c2cccc3sccc23)CC1` [EX 98, (4-(benzo[b]thiophen-4-yl)-1-(4-((2-oxo-1,2-dihydroquinolin-7-yl)oxy)butyl)piperazin-1-ium-1-yl)methyl (2-(2-ethoxyethoxy)ethyl) phosphate], for which the cytotoxicity at 24 h, 300 µM in data set [1] is -8%. In addition, in data set [2], the “Concentration of brexpiprazole formed” value was found to be 0 nM and the “Concentration of evaluation compound decreased” value was -20 nM.

Turning to `CC1(C)O[C@H]2[C@@H](O1)[C@@H](COP(=O)([O-])OC[N+]1(CCCCOc3ccc4ccc(=O)[nH]c4c3)CCN(c3cccc4sccc34)CC1)O[C@@H]1OC(C)(C)O[C@@H]12` [EX 100, (4-(benzo[b]thiophen-4-yl)-1-(4-((2-oxo-1,2-dihydroquinolin-7-yl)oxy)butyl)piperazin-1-ium-1-yl)methyl (((3aR,5R,5aS,8aS,8bR)-2,2,7,7-tetramethyltetrahydro-5H-bis([1,3]dioxolo)[4,5-b:4′,5′-d]pyran-5-yl)methyl)phosphate], in data set [1], the cytotoxicity at 24 h, 300 µM is -3%. For the same compound, in data set [2], the “Concentration of brexpiprazole formed” value amounted to 0 nM and the “Concentration of evaluation compound decreased” value came to 50 nM.

Regarding `CC(=O)OCCCCCCOP(=O)([O-])OC[N+]1(CCCCOc2ccc3ccc(=O)[nH]c3c2)CCN(c2cccc3sccc23)CC1` [EX 101, 6-acetoxyhexyl ((4-(benzo[b]thiophen-4-yl)-1-(4-((2-oxo-1,2-dihydroquinolin-7-yl)oxy)butyl)piperazin-1-ium-1-yl)methyl) phosphate], the cytotoxicity at 24 h, 300 µM in data set [1] was found to be 16%. In data set [2], the “Concentration of brexpiprazole formed” value was 0 nM and the “Concentration of evaluation compound decreased” value was 80 nM.

Take `CC(C)(C)C(=O)OCCCCCCOP(=O)([O-])OC[N+]1(CCCCOc2ccc3ccc(=O)[nH]c3c2)CCN(c2cccc3sccc23)CC1` [EX 102, (4-(benzo[b]thiophen-4-yl)-1-(4-((2-oxo-1,2-dihydroquinolin-7-yl)oxy)butyl)piperazin-1-ium-1-yl)methyl (6-(pivaloyloxy)hexyl) phosphate]: the cytotoxicity at 24 h, 300 µM in data set [1] was 16%. In data set [2], the “Concentration of brexpiprazole formed” value came to 0 nM and the “Concentration of evaluation compound decreased” value was 70 nM.

On to `CCOC(=O)[C@@H](C)OP(=O)([O-])OC[N+]1(CCCCOc2ccc3ccc(=O)[nH]c3c2)CCN(c2cccc3sccc23)CC1` [EX 103, (R)-(4-(benzo[b]thiophen-4-yl)-1-(4-((2-oxo-1,2-dihydroquinolin-7-yl)oxy)butyl)piperazin-1-ium-1-yl)methyl(1-ethoxy-1-oxopropan-2-yl) phosphate], for which the cytotoxicity at 24 h, 300 µM in data set [1] worked out at 3%. For the same compound, in data set [2], the “Concentration of brexpiprazole formed” value was found to be 0 nM and the “Concentration of evaluation compound decreased” value was -10 nM.
